Measured values published in US6673827B1, “Methods of treating fungal infections with inhibitors of NAD synthetase enzyme” (priority 1999, dated 2004).
Converted amounts (≈) assume the structure as drawn. “And” between values parts separate entries of the source, which are not always exact repeats. Equal values may be shown once. Read-outs that look alike come from different tables or passages of the source.

Assays:
Assay type in all cases: cell-based
[1] = test system: Candida albicans LH-000664533; assay: In vitro study of inhibition of growth and lethality against yeast (MIC/MLC susceptibility test), isolate D; conditions: for Minimum Lethal Concentration (MLC), D: Table 4B summary, isolate D
[2] = test system: Cryptococcus neoformans DLB-1027594CNC; assay: In vitro study of inhibition of growth and lethality against yeast (MIC/MLC susceptibility test), isolate G; conditions: for Minimum Lethal Concentration (MLC), G: Table 4B summary, isolate G; for MIC: DLB1027594CNC
[3] = test system: Cryptococcus neoformans SLP-BC0012854; assay: In vitro study of inhibition of growth and lethality against yeast (MIC/MLC susceptibility test), isolate H; conditions: for Minimum Lethal Concentration (MLC), H: Table 4B summary, isolate H
[4] = test system: Torulopsis glabrata ERH-BC9938274; assay: In vitro study of inhibition of growth and lethality against yeast (MIC/MLC susceptibility test), isolate F; conditions: for Minimum Lethal Concentration (MLC), F: Table 4B summary, isolate F; for Minimum Inhibitory Conc. (MIC), 24 hr.: read at 24 hr; for MIC: Nakaseomyces glabratus
[5] = test system: Torulopsis glabrata JHC-BC9951635; assay: In vitro study of inhibition of growth and lethality against yeast (MIC/MLC susceptibility test), isolate E; conditions: for Minimum Lethal Concentration (MLC), E: Table 4B summary, isolate E; for Minimum Inhibitory Conc. (MIC), 24 hr. / Minimum Inhibitory Conc. (MIC), 48 hr. / MIC: isolate assigned by line order; for MIC: Nakaseomyces glabratus
[6] = test system: Candida tropicalis ATCC 750; assay: In vitro study of inhibition of growth and lethality against yeast (MIC/MLC susceptibility test), isolate A; conditions: for Minimum Lethal Concentration (MLC), A: Table 4B summary, isolate A
[7] = test system: Candida tropicalis ATCC 28707; assay: In vitro study of inhibition of growth and lethality against yeast (MIC/MLC susceptibility test), isolate B; conditions: for Minimum Lethal Concentration (MLC), B: Table 4B summary, isolate B
[8] = test system: Candida albicans KJP-000531594; assay: In vitro study of inhibition of growth and lethality against yeast (MIC/MLC susceptibility test), isolate C; conditions: for Minimum Lethal Concentration (MLC), C: Table 4B summary, isolate C; for Minimum Inhibitory Conc. (MIC), 24 hr. / Minimum Inhibitory Conc. (MIC), 48 hr. / MIC: Candida albicans
[9] = Cryptococcus neoformans, 1st pair of lines, read at 72 hr, isolate assigned by line order
[10] = Torulopsis glabrata, 1st pair of lines, isolate assigned by line order
[11] = Torulopsis glabrata, 2nd pair of lines, read at 24 hr
[12] = Torulopsis glabrata, 2nd pair of lines, read at 48 hr
[13] = 1st pair of lines, read at 24 hr, isolate not given, assigned by line order and MLC of Table 4B
[14] = 1st pair of lines, read at 48 hr, isolate assigned by line order

In the case of `COC(=O)c1cc2cc(OCc3ccccc3)ccc2n1CCCCCCOC(=O)c1cccnc1` [Compound 0951], the “Minimum Lethal Concentration (MLC), D” value [1] was 2 µg/mL, the “Minimum Lethal Concentration (MLC), G” value [2] was 4 µg/mL and the “Minimum Lethal Concentration (MLC), H” value [3] was 4 µg/mL. The “Minimum Lethal Concentration (MLC), F” value [4] was 2 µg/mL, the “Minimum Lethal Concentration (MLC), E” value [5] was 2 µg/mL and the “Minimum Lethal Concentration (MLC), A” value [6] was 1 µg/mL. The “Minimum Lethal Concentration (MLC), B” value [7] was 1 µg/mL and the “Minimum Lethal Concentration (MLC), C” value [8] was 1 µg/mL.

With `C[C@@H]1[C@H](O)[C@@H](C)/C=C/C=C/C=C/C=C/C=C/C=C/C=C/[C@H](O[C@@H]2O[C@H](C)[C@@H](O)[C@H](N)[C@@H]2O)C[C@@H]2O[C@](O)(C[C@@H](O)C[C@@H](O)[C@H](O)CC[C@@H](O)C[C@@H](O)CC(=O)O[C@H]1C)C[C@H](O)[C@H]2C(=O)O` [Amphotericin B] the “Minimum Inhibitory Conc. (MIC), 24 hr.” value ([1]; Candida albicans, 2nd pair of lines, read at 24 hr, isolate assigned by line order) was 0.5 µg/mL, the “Minimum Inhibitory Conc. (MIC), 48 hr.” value ([1]; Candida albicans, 2nd pair of lines, read at 48 hr, isolate assigned by line order) was 0.5 µg/mL and the “Minimum Inhibitory Conc. (MIC), 48 hr.” value ([2]; Cryptococcus neoformans, 1st pair of lines, read at 48 hr, isolate assigned by line order) was 0.25 µg/mL. For the same compound, the “Minimum Inhibitory Conc. (MIC), 72 hr.” value [2, 9] was 0.25 µg/mL, the “Minimum Inhibitory Conc. (MIC), 48 hr.” value ([3]; Cryptococcus neoformans, 2nd pair of lines, read at 48 hr, isolate assigned by line order) was 0.5 µg/mL and 0.25 µg/mL and the “Minimum Inhibitory Conc. (MIC), 24 hr.” value [4, 10] was 0.5 µg/mL. For the same compound, the “Minimum Inhibitory Conc. (MIC), 48 hr.” value ([4]; Torulopsis glabrata, 1st pair of lines, read at 48 hr, isolate assigned by line order) was 1 µg/mL, the “Minimum Inhibitory Conc. (MIC), 24 hr.” value [5, 11] was 0.5 µg/mL and the “Minimum Inhibitory Conc. (MIC), 48 hr.” value [5, 12] was 1 µg/mL and 0.5 µg/mL. The “Minimum Inhibitory Conc. (MIC), 24 hr.” value ([6]; Candida tropicalis, 2nd pair of lines, read at 24 hr, isolate assigned by line order) was 0.5 µg/mL, the “Minimum Inhibitory Conc. (MIC), 48 hr.” value ([6]; Candida tropicalis, 2nd pair of lines, read at 48 hr, isolate assigned by line order) was 0.5 µg/mL and 1 µg/mL and the “Minimum Inhibitory Conc. (MIC), 24 hr.” value ([7]; Candida tropicalis, 1st pair of lines, read at 24 hr, isolate assigned by line order) was 2 µg/mL. For the same compound, the “Minimum Inhibitory Conc. (MIC), 48 hr.” value ([7]; Candida tropicalis, 1st pair of lines, read at 48 hr, isolate assigned by line order) was 4 µg/mL, the “Minimum Inhibitory Conc. (MIC), 24 hr.” value [8, 13] was 0.5 µg/mL and the “Minimum Inhibitory Conc. (MIC), 48 hr.” value [8, 14] was 1 µg/mL.

In the case of `COC(=O)c1cc2cc(OCc3ccccc3)ccc2n1CCCCCCCCC[n+]1ccccc1` [Compound 230], the MIC ([1]; Candida albicans, LH000664533, 24 h, read-out: Minimum Inhibitory Conc. (MIC), 24 hr.) was 1 µg/mL, the MIC ([1]; Candida albicans, LH000664533, 48 h, read-out: Minimum Inhibitory Conc. (MIC), 48 hr.) was 1 µg/mL and the MIC ([2]; Cryptococcus neoformans, 48 h, read-out: Minimum Inhibitory Conc. (MIC), 48 hr.) was 1 µg/mL. It also gave an MIC ([2]; Cryptococcus neoformans, 72 h, read-out: Minimum Inhibitory Conc. (MIC), 72 hr.) of 1 µg/mL, an MIC ([3]; Cryptococcus neoformans, SLPBC0012854, 48 h, read-out: Minimum Inhibitory Conc. (MIC), 48 hr.) of 1 µg/mL and an MIC ([3]; Cryptococcus neoformans, SLPBC0012854, 72 h, read-out: Minimum Inhibitory Conc. (MIC), 72 hr.) of 1 µg/mL. For the same compound, the MIC ([4]; ERHBC9938274, 24 h, read-out: Minimum Inhibitory Conc. (MIC), 24 hr., Torulopsis glabrata, 1st pair of lines, read at 24 hr, isolate assigned by line order) was 1 µg/mL, the MIC ([4]; ERHBC9938274, 48 h, read-out: Minimum Inhibitory Conc. (MIC), 48 hr., Torulopsis glabrata, 1st pair of lines, read at 48 hr, isolate assigned by line order) was 2 µg/mL and the “Minimum Inhibitory Conc. (MIC), 24 hr.” value [4, 10] was 2 µg/mL. The MIC ([5]; JHCBC9951635, 24 h, read-out: Minimum Inhibitory Conc. (MIC), 24 hr., Torulopsis glabrata, 2nd pair of lines, read at 24 hr) was 1 µg/mL, the MIC ([5]; JHCBC9951635, 48 h, read-out: Minimum Inhibitory Conc. (MIC), 48 hr., Torulopsis glabrata, 2nd pair of lines, read at 48 hr) was 2 µg/mL and the “Minimum Inhibitory Conc. (MIC), 24 hr.” value [5, 11] was 2 µg/mL. The MIC ([6]; Candida tropicalis, ATCC750, 24 h, read-out: Minimum Inhibitory Conc. (MIC), 24 hr.) was 1 µg/mL, the MIC ([6]; Candida tropicalis, ATCC750, 48 h, read-out: Minimum Inhibitory Conc. (MIC), 48 hr.) was 1 µg/mL and the MIC ([7]; Candida tropicalis, ATCC28707, 24 h, read-out: Minimum Inhibitory Conc. (MIC), 24 hr.) was 0.5 µg/mL. For the same compound, the MIC ([7]; Candida tropicalis, ATCC28707, 48 h, read-out: Minimum Inhibitory Conc. (MIC), 48 hr.) was 0.5 µg/mL, the “Minimum Inhibitory Conc. (MIC), 24 hr.” value [8, 13] was 0.5 µg/mL and the MIC ([8]; KJP000531594, 24 h, read-out: Minimum Inhibitory Conc. (MIC), 24 hr., Candida albicans, 1st pair of lines, read at 24 hr, isolate not given, assigned by line order and MLC of Table 4B) was 1 µg/mL. For the same compound, the MIC ([8]; KJP000531594, 48 h, read-out: Minimum Inhibitory Conc. (MIC), 48 hr., Candida albicans, 1st pair of lines, read at 48 hr, isolate assigned by line order) was 1 µg/mL.

For `Fc1cc(F)c2[nH]c(CCCC[n+]3cccc4ccccc43)cc2c1` [Compound 0409], the “Minimum Lethal Concentration (MLC), D” value [1] was 1 µg/mL, the “Minimum Lethal Concentration (MLC), G” value [2] was 2 µg/mL and the “Minimum Lethal Concentration (MLC), H” value [3] was 2 µg/mL. The “Minimum Lethal Concentration (MLC), F” value [4] was 2 µg/mL, the “Minimum Lethal Concentration (MLC), E” value [5] was 2 µg/mL and the “Minimum Lethal Concentration (MLC), A” value [6] was 1 µg/mL. The “Minimum Lethal Concentration (MLC), B” value [7] was 0.5 µg/mL and the “Minimum Lethal Concentration (MLC), C” value [8] was 1 µg/mL.

`OC(Cn1cncn1)(Cn1cncn1)c1ccc(F)cc1F` [Fluconazole] was tested, and the “Minimum Inhibitory Conc. (MIC), 72 hr.” value [2, 9] was 64 µg/mL, the MIC ([2]; Cryptococcus neoformans, 48 h, Cryptococcus neoformans, 1st pair of lines, read at 48 hr, isolate assigned by line order, read-out: Minimum Inhibitory Conc. (MIC), 48 hr.) was greater than 64 µg/mL and the MIC ([2]; Cryptococcus neoformans, 72 h, Cryptococcus neoformans, 1st pair of lines, read at 72 hr, isolate assigned by line order, read-out: Minimum Inhibitory Conc. (MIC), 72 hr.) was greater than 64 µg/mL. The MIC ([3]; Cryptococcus neoformans, SLPBC0012854, 48 h, Cryptococcus neoformans, 2nd pair of lines, read at 48 hr, isolate assigned by line order, read-out: Minimum Inhibitory Conc. (MIC), 48 hr.) was 4 µg/mL (≈ 13.1 µM), the MIC ([3]; Cryptococcus neoformans, SLPBC0012854, 72 h, Cryptococcus neoformans, 2nd pair of lines, read at 72 hr, isolate assigned by line order, read-out: Minimum Inhibitory Conc. (MIC), 72 hr.) was 4 µg/mL (≈ 13.1 µM) and the MIC ([5]; JHCBC9951635, 24 h, Torulopsis glabrata, 2nd pair of lines, read at 24 hr, read-out: Minimum Inhibitory Conc. (MIC), 24 hr.) was 2 µg/mL (≈ 6.53 µM). The MIC ([5]; JHCBC9951635, 48 h, Torulopsis glabrata, 2nd pair of lines, read at 48 hr, read-out: Minimum Inhibitory Conc. (MIC), 48 hr.) was 8 µg/mL (≈ 26.1 µM), the “Minimum Inhibitory Conc. (MIC), 48 hr.” value [5, 12] was 4 µg/mL and the MIC ([6]; Candida tropicalis, ATCC750, 24 h, Candida tropicalis, 2nd pair of lines, read at 24 hr, isolate assigned by line order, read-out: Minimum Inhibitory Conc. (MIC), 24 hr.) was 1 µg/mL (≈ 3.27 µM). The MIC ([6]; Candida tropicalis, ATCC750, 48 h, Candida tropicalis, 2nd pair of lines, read at 48 hr, isolate assigned by line order, read-out: Minimum Inhibitory Conc. (MIC), 48 hr.) was 4 µg/mL (≈ 13.1 µM), the “Minimum Inhibitory Conc. (MIC), 48 hr.” value [8, 14] was 2 µg/mL and the MIC ([8]; KJP000531594, 24 h, 1st pair of lines, read at 24 hr, isolate not given, assigned by line order and MLC of Table 4B, read-out: Minimum Inhibitory Conc. (MIC), 24 hr.) was 0.5 µg/mL (≈ 1.63 µM). The MIC ([8]; KJP000531594, 48 h, 1st pair of lines, read at 48 hr, isolate assigned by line order, read-out: Minimum Inhibitory Conc. (MIC), 48 hr.) was 1 µg/mL (≈ 3.27 µM).
